Assay results from US20220153782A1, “COMPOUNDS, COMPOSITIONS AND METHODS FOR TREATING A NEUROLOGICAL CONDITION” (MEMORYPLUS LTD., priority 2019, published 2022).
Entries after “also recorded” stand apart in the source; their conditions may differ. Where a SMILES comes first, the peptide text is derived from it. [ ]: non-standard residue; d: D form. The star is where a group is joined. ξ: configuration not given here. Myristoyl = CCCCCCCCCCCCCC(=O)*; dThr(3ξ) = CC(O)[C@@H](N)C(=O)O; Lauroyl = CCCCCCCCCCCC(=O)*; ξIle = CC[C@H](C)C(N)C(=O)O

Assays:
Plasma stability (human) = format: in vitro ADME; details: for k / half-life: human plasma, one phase decay; for half-life: human, plasma
Source text: (§1) N, 3 independent experiments.
(§2) Plasma stability. […] Based on the higher lipophilicity of myristoylated peptides, dodecanoyl peptides are expected to be less protein bound and a higher percentage of the peptide will be available for permeation across biological barriers such as the BBB (only free fraction is available for transport). Thus, Dodecanoyl-[…] is a likely candidate for further development.

[1] = tested on: in vitro 2D human BBB model (hCMEC/D3 and human astrocytes SC-1800); test: in vitro
Procedure: (§3) The in vitro permeability across a human 2D blood-brain Transwell model (hCMEC/D3 and human astrocytes SC-1800) was tested and enabled the calculation of the apparent permeability coefficient (Papp) for all peptides.

in vitro = details: human; for Papp at 200 μM: BBB permeability; for Papp: Papp0-4 h experiment 2
Procedure: as §3

Plasma stability (mouse) = format: in vitro ADME; details: for half-life: mouse, plasma; for half-life / k: one phase decay
Source text: as §1, §2

[2] = Brain stability (brain homogenate); format: in vitro ADME, mouse; details: for brain stability (comparative): longer half-lives; for half-life: mouse, brain homogenate
Source text: as §1

[3] = Stability in simulated intestinal fluid; format: in vitro ADME; details: one phase decay
Source text: as §1
Simulated intestinal fluids. The first hurdle that a peptide faces upon oral delivery is the high salt and acidic environment of the stomach that can denature the therapeutic peptide as well as the action of pepsin. Enteric coating can overcome this first hurdle easily with currently available industrial processes. Thus, we assessed the stability of the lipidized peptides in simulated intestinal fluids from non-fasted animals i.e. soluble fraction of digestive enzymes present in the upper gastrointestinal (and the major absorptive site for peptides). This soluble fraction contains pancreatic proteases such as trypsin and chymotrypsin, carboxypeptidases and aminopeptidases able to hydrolyse peptides down to di- or tripeptides. […] However, permeability across the BBB needs to be taken into consideration.

APP/PS1 mice = test: Contextual fear conditioning, APP/PS1 mice; format: in vivo, mouse
Procedure: Use of peptides in vivo with osmotic pumps. APP/PS1 (a mouse model of Alzheimer's disease) and WT mice were anesthetized with isofluorane, and i.c.v. delivery cannulas (brain alzet kit III) were implanted with a stereotaxic frame at the following coordinates according to the bregma: AP, −0.5 mm; ML, 1 mm; and DV, −2.2 mm. Osmotic minipumps (Alzet; model #1004) were filled with the peptides (Dodecanoyl-[…] (conjugate of peptide SEQ ID 2) or Dodecanoyl-[…] (conjugate of peptide SEQ ID 1), 10 μM peptide in 2 mM in cyclodextrin) or with vehicle (cyclodextrin), and equilibrated in 0.9% NaCl at 37° C. for 48 hr. They were attached to the i.c.v. cannula tubing and subcutaneously implanted at the back. After 21 days, behavioral testing was started. Animal manipulation and data analysis were carried out blind with respect to genotype and treatment.
Fear conditioning. In this test, mice form an association between a certain context (an experimental cage/tone) and an aversive event (a foot shock) that takes place in that context. […] Training and testing took place in a rodent observation cage (30×37×25 cm) that was placed in a sound attenuating chamber. In the training (conditioning), the mouse was exposed to the conditioning context (180 sec) followed by a tone (CS, 20 sec, 2 kHz, 85 dB). After termination of the tone, a foot shock (US, 0.75 mA, 2 sec) was delivered through a stainless-steel grid floor. Mice received three foot shocks with an intertrial interval of 60 s. The mouse was removed from the fear conditioning box 30 sec after shock termination and returned to their home cages. Testing: In the contextual fear conditioning version, mice were placed back into the original training context for 8 min, during which no foot shock was delivered. […] The animals' behavior was scored by an observer blind to the treatment conditions. Using a time-sampling procedure every 2 s, each mouse was scored blindly as either freezing or active at the instant the sample was taken. […]

[4] = Liver stability (liver homogenate); format: in vitro ADME, mouse; details: for half-life: mouse, liver homogenate
Source text: as §1
Liver stability (mouse). Clearance of peptide therapeutics is highly dependent on the high metabolism occurring by liver enzymes able to degrade within minutes the total dose of peptide reaching the bloodstream after intravenous, other parenteral and non-invasive (oral and nasal routes). Peptides with good plasma and liver stability are more likely to remain in circulation and thus elicit higher levels if peptide is brain permeable across the BBB via invasive and non-invasive routes.

[5] = Self-assembly (Thioflavin T, critical aggregate concentration) and TEM; format: physicochemical; details: aqueous media, ThT
Source text: Peptides were able to aggregate in aqueous media and interact with Thioflavin T (ThT). ThT can be immobilized in fibrils/aggregates resulting in an increase in fluorescence. Dodecanoyl-[…] and Myristoyl-[…] result in lower critical aggregate concentrations (CAC) that is ˜5-fold lower from their equivalent lipidized peptides with a threonine. […] CAC is ˜20-fold smaller for myristoylated peptides compared to dodecanoyl peptides. […] This conserved structure can explain the increased stability and likely the success in solubilizing/stabilizing the peptide aggregates in hydroxyl-b-propyl cyclodextrin.

[6] = Physicochemical properties (water solubility)
[7] = tested on: in vitro 2D human BBB model (hCMEC/D3 and human astrocytes SC-1800); details: brain permeable peptide, literature; cited from earlier work
[8] = brain, one phase decay, read-out: t1/2 (h)
[9] = brain, one phase decay, read-out: t1/2 (min)
[10] = liver, one phase decay, read-out: t1/2 (h)
[11] = liver, one phase decay, read-out: t1/2 (min)

Procedure for hCMEC/D3 cells: Cell metabolic activity was calculated in Human cerebral microvascular endothelial cells (hCMEC/D3) after exposure to the peptides at various concentrations for 4 or 24 hours (n=3, FIG. 7).
At the specified time points, the MTT solution (20 μL at 5 mg mL^−1 solution in PBS) were added to each well and cells were incubated for 4 hours at 37° C. Subsequently, DMSO (100 μL) was added to dissolve the formazan crystals and absorbance was measured at 570 and 690 nm using Multiskan Go microplate spectrophotometer and data were analysed using the SkanIt software (Thermo Scientific, Paisley, UK). Cell metabolic activity was calculated by subtracting the values at 690 nm from 570 nm to remove background, and dividing the values by the control to express as a percentage (%) of the control (0.5% DMSO):

k (Plasma stability (human))	half-life (Plasma stability (human); read-out: t1/2 (h))	half-life (Plasma stability (human); read-out: t1/2 (min))	BBB permeability [1]	Papp at 200 μM (in vitro)	Papp (in vitro)	half-life (Plasma stability (mouse); read-out: t1/2 (h))	half-life (Plasma stability (mouse); read-out: t1/2 (min))	k (Plasma stability (mouse))	brain stability (comparative) ([2]; brain (mouse))	k ([2]; brain, one phase decay)	half-life [2, 8]	half-life [2, 9]	k [3]	half-life ([3]; read-out: t1/2 (h))	half-life ([3]; read-out: t1/2 (min))	k ([4]; liver, one phase decay)	half-life [4, 10]	half-life [4, 11]	Compound	Cell viability (hCMEC/D3 cells)	also measured
0.2102 h⁻¹	3.3 h	3.3 h	good	> 3.77 ×10⁻⁶ cm/s	5.57 ± 0.289 ×10⁻⁶ cm/s	0.151 h	0.151 h	4.595 h⁻¹	more brain stable	1.901 h⁻¹	0.365 h	0.365 h	0.2337 h⁻¹	2.97 h	2.97 h	1.146 h⁻¹	0.605 h	0.605 h	CCCCCCCCCCCC(=O)N[C@@H](CCC(N)=O)C(=O)N[C@H](Cc1c[nH]cn1)C(=O)N[C@@H](CO)C(=O)N[C@H](CCC(N)=O)C(=O)NC(C(=O)N[C@@H](C(=O)N[C@@H](CCCCN)C(=O)N[C@@H](C(=O)O)C(C)C)C(C)O)[C@@H](C)CC (stereo partly shown) (Lauroyl-Q[dH]S[dQ][ξIle][dThr(3ξ)]K[dV]-OH)	+++++	human plasma stability (Plasma stability (human)): good; freezing behavior compared with the myristoyl peptide (APP/PS1 mice; FIG. 5): more than the myristoyl peptide; increase in freezing compared to myristoyl-QHSQITKV (APP/PS1 mice; fear conditioning test): 36%; contextual fear conditioning performance (freezing behavior) (APP/PS1 mice; i.c.v. infusion 3-4 weeks, vs vehicle, FIG. 4B): improved the performance; also recorded: enhance freezing behavior; cell viability (hCMEC/D3 cells): good
0.3116 h⁻¹	2.22 h	2.22 h	poor	< 3.77 ×10⁻⁶ cm/s	2.63 ± 0.0786 ×10⁻⁶ cm/s	0.869 h	0.869 h	0.7972 h⁻¹	more brain stable	2.714 h⁻¹	0.255 h	0.255 h	0.1534 h⁻¹	4.52 h	4.52 h	0.5092 h⁻¹	1.36 h	1.36 h	CCCCCCCCCCCCCC(=O)N[C@@H](CCC(N)=O)C(=O)N[C@@H](Cc1c[nH]cn1)C(=O)N[C@@H](CO)C(=O)N[C@@H](CCC(N)=O)C(=O)N[C@H](C(=O)N[C@H](C(=O)N[C@@H](CCCCN)C(=O)N[C@H](C(=O)O)C(C)C)[C@@H](C)O)[C@@H](C)CC (Myristoyl-QHSQITKV-OH; C-terminus assumed)	+	remaining at 2 h (Plasma stability (mouse); after 2 hours of incubation, read-out: peptide remaining): ~50%; stability in mouse plasma (comparative) (Plasma stability (mouse); longer half-lives): more plasma stable; critical aggregate concentration (CAC), lower than equivalent lipidized peptide with a threonine [5]: ~5 fold; half-life ([2]; brain (mouse), read-out: half-life (converted)): 0.26 h; half-life ([4]; liver (mouse), read-out: half-life (converted)): 1.4 h; recovery of cells at 24 hours (hCMEC/D3 cells): did not recover; water solubility (comparative with threonine analogue) [6]: higher water solubility
1.604 h⁻¹	0.432 h	0.432 h	–	2.63 to 5.57 ×10⁻⁶ cm/s	3.77 ± 0.386 ×10⁻⁶ cm/s	0.112 h	0.112 h	6.172 h⁻¹	–	4.204 h⁻¹	0.165 h	0.165 h	0.2490 h⁻¹	–	–	0.03747 h⁻¹	18.5 h	18.5 h	CCCCCCCCCCCCCC(=O)N[C@@H](CCC(N)=O)C(=O)N[C@@H](Cc1c[nH]cn1)C(=O)N[C@H](C(=O)N[C@@H](CCC(N)=O)C(=O)N[C@H](C(=O)N[C@H](C(=O)N[C@@H](CCCCN)C(=O)N[C@H](C(=O)O)C(C)C)[C@@H](C)O)[C@@H](C)CC)[C@@H](C)O (Myristoyl-QHTQITKV-OH; C-terminus assumed)	+++++	k (fast) ([4]; liver, two phase decay, fast): 3.051 (fast), h^−1; k (slow) ([4]; liver, two phase decay, slow): 0.00046 h⁻¹; half-life ([4]; liver, two phase decay, fast, read-out: t1/2 (h) (fast) (converted)): 0.227 h; half-life ([4]; liver, two phase decay, fast, read-out: t1/2 (min) (fast)): 0.227 h; half-life ([4]; liver, two phase decay, slow, read-out: t1/2 (h) (slow) (converted)): 1510 h; half-life ([4]; liver, two phase decay, slow, read-out: t1/2 (min) (slow)): 1510 h; physicochemical properties for successful development [6]: poor
–	–	–	–	–	–	–	–	–	–	–	–	–	–	–	–	–	–	–	Angiopep-2	–	Papp, previous reported value [7]: 8.69±1.53 ×10^−6 cm/s
